According to patent US8148572B2, “Compounds” (AstraZeneca AB, priority 2005, dated 2012):

Target: T1, rhCRTh2 (Homo sapiens, UniProt Q9Y5Y4)
T1 construct: expressed in transfected cells; host or cells: HEK cells (membrane preparation)
T1 sequence (Q9Y5Y4 1-395): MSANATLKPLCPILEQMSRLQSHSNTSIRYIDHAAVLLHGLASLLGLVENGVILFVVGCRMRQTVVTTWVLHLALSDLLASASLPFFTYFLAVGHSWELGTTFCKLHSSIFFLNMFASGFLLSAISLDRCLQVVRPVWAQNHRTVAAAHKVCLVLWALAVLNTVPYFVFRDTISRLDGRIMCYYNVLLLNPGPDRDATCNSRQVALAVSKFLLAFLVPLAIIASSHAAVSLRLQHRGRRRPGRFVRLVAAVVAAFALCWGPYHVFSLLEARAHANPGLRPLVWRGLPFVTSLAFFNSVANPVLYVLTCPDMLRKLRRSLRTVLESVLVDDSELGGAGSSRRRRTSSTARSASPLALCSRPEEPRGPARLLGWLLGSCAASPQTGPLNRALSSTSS
Assay: Ligand Binding Assay ([3H]PGD2 displacement, SPA beads coated with HEK cell membranes)
Details: [3H]PGD2 binding to HEK cell membranes containing CRTh2; read-out: pIC50 value (converted)
Protocol: [^3H]PGD2 was purchased from Perkin Elmer Life Sciences with a specific activity of 100-210 Ci/mmol. All other chemicals were of analytical grade.
HEK cells expressing rhCRTh2/Gα16 were routinely maintained in DMEM containing 10% Foetal Bovine Serum (HyClone), 1 mg/ml geneticin, 2 mM L-glutamine and 1% non-essential amino acids. For the preparation of membranes, the adherent transfected HEKcells were grown to confluence in two layer tissue culture factories (Fisher, catalogue number TKT-170-070E). Maximal levels of receptor expression were induced by addition of […] sodium butyrate for the last 18 hours of culture. The adherent cells were washed once with phosphate buffered saline (PBS, 50 ml per cell factory) and detached by the addition of 50 ml per cell factory of ice-cold membrane homogenisation buffer [20 mM HEPES (pH 7.4), 0.1 mM dithiothreitol, 1 mM EDTA, 0.1 mM phenyl methyl sulphonyl fluoride and 100 µg/ml bacitracin]. Cells were pelleted by centrifugation at 220×g for 10 minutes at 4° C., re-suspended in half the original volume of fresh membrane homogenisation buffer and disrupted using a Polytron homogeniser for 2×20 second bursts keeping the tube in ice at all times. […] The final pellet was re-suspended in 4 ml of membrane homogenisation buffer per cell factory used and the protein content determined. […]
All assays were performed in Corning clear bottomed, white 96-well NBS plates (Fisher). […] (The optimum coating concentrations were determined for each batch of membranes) The beads were pelleted by centrifugation (800×g for 7 minutes at 4° C.), washed once with assay buffer (50 mM HEPES pH 7.4 containing 5 mM magnesium chloride) and finally re-suspended in assay buffer at a bead concentration of 10 mg/ml. […]
Compounds and DK-PGD2 were dissolved in DMSO and diluted in the same solvent to 100× the required final concentration. […] The assay plate was incubated at room temperature for 2 hours and counted on a Wallac Microbeta liquid scintillation counter (1 minute per well).

## CN(C)S(=O)(=O)c1ccc(Oc2cc(CC(=O)O)ccc2Cl)c(Cl)c1 [Example 7, (4-chloro-3-{2-chloro-4-[(dimethylamino)sulfonyl]phenoxy}phenyl)acetic acid]
  IC50: 7.94 nM

## CS(=O)(=O)c1ccc(Oc2cc(CC(=O)O)ccc2Cl)c(F)c1 [Example 9, {4-chloro-3-[2-fluoro-4-(methylsulfonyl)phenoxy]phenyl}acetic acid]
  IC50: 14.1 nM

## CS(=O)(=O)c1ccc(Oc2cc(CC(=O)O)ccc2Cl)c(C#N)c1 [Example 11, {4-chloro-3-[2-cyano-4-(methylsulfonyl)phenoxy]phenyl}acetic acid]
  IC50: 8.91 nM
